# Data taken from patent US10577363B2, “Substituted piperidine compounds” (EPIZYME, INC., priority 2014, dated 2020).
# pIC50: −log10 of the molar value.
# Tests used:
# SMYD3 [1] = biological target: T1, SMYD3 (Homo sapiens (Human), UniProt Q9H7B4); assay: SMYD3 biochemical assay (SPA, 3H-SAM methylation of MEKK2 protein substrate); details: Table 2A; read-out: SMYD3 Biochem IC50
# In short: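 Enzyme: untagged full-length human SMYD3 from E. coli; substrate GST-tagged MEKK2 from insect cells. Buffer 25 mM Tris-Cl pH 8.0, 1 mM TCEP, 0.005% BSG/Tween 20. 30 min compound–enzyme preincubation at RT; 3H-SAM/MEKK2 start; stop with cold SAM (100 uM final); SPA readout in cpm.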
# SMYD3 [2] = biological target: T1, SMYD3; assay: SMYD3 cell assay (Trimethyl-MEKK2 In-Cell Western in 293T/17 cells); format: cell-based; details: Table 2A; read-out: SMYD3 Cell IC50
# In short: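 In-Cell Western readout: methanol-fixed cells stained for trimethyl-MEKK2 and flag tag, ratio per well normalized to DMSO and background controls.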
# T1 sequence (Q9H7B4 whole entry): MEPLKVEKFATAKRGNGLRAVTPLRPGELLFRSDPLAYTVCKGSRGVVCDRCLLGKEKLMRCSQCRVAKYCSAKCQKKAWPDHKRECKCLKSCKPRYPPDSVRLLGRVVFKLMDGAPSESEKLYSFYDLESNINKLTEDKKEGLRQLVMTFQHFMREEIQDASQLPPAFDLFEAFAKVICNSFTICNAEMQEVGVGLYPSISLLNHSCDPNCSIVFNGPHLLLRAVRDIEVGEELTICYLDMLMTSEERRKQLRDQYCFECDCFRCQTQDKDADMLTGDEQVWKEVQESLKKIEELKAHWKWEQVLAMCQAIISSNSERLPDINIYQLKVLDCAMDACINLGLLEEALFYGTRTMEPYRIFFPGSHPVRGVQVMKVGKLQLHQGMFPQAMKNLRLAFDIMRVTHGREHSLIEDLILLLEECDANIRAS
SMILES,pIC50 (SMYD3 [1]),pIC50 (SMYD3 [2])
"O=C(N[C@H]1C[C@H]2CC[C@@H](C1)N2S(=O)(=O)CC1CCN(CCC(F)(F)F)CC1)c1cc(C2CC2)on1 [compound 551, 5-cyclopropyl-N-((1R,3r,5S)-8-(((1-(3,3,3-trifluoropropyl)piperidin-4-yl)methyl)sulfonyl)-8-azabicyclo[3.2.1]octan-3-yl)isoxazole-3-carboxamide]",8.54,7.27
"NC1CC2(C1)CN(S(=O)(=O)N1[C@@H]3CC[C@H]1C[C@@H](NC(=O)c1cc(C4CC4)on1)C3)C2 [compound 552, N-((1R,3r,5S)-8-((6-amino-2-azaspiro[3.3]heptan-2-yl)sulfonyl)-8-azabicyclo[3.2.1]octan-3-yl)-5-cyclopropylisoxazole-3-carboxamide]",8.51,7.31
"C[C@H]1C[C@@H](NC(=O)c2cc(C3CC3)on2)CCN1S(=O)(=O)CC1CCN(CCN2CCCCC2)CC1 [compound 553, 5-cyclopropyl-N-((2S,4S)-2-methyl-1-(((1-(2-(piperidin-1-yl)ethyl)piperidin-4-yl)methyl)sulfonyl)piperidin-4-yl)isoxazole-3-carboxamide]",8.47,6.98
"COCCN1CCC(CS(=O)(=O)N2CC[C@H](NC(=O)c3cc(C4CC4)on3)C[C@@H]2C)CC1 [compound 554, 5-cyclopropyl-N-((2S,4S)-1-(((1-(2-methoxyethyl)piperidin-4-yl)methyl)sulfonyl)-2-methylpiperidin-4-yl)isoxazole-3-carboxamide]",8.46,7.15
"COCCN1CCC(CS(=O)(=O)N2[C@@H]3CC[C@H]2C[C@@H](NC(=O)c2cc(C4CC4)on2)C3)CC1 [compound 556, 5-cyclopropyl-N-((1R,3r,5S)-8-(((1-(2-methoxyethyl)piperidin-4-yl)methyl)sulfonyl)-8-azabicyclo[3.2.1]octan-3-yl)isoxazole-3-carboxamide]",8.41,7.25
"CC(C)CN1CCC(CS(=O)(=O)N2CC[C@H](NC(=O)c3cc(C4CC4)on3)C[C@@H]2C)CC1 [compound 557, 5-cyclopropyl-N-((2S,4S)-1-(((1-isobutylpiperidin-4-yl)methyl)sulfonyl)-2-methylpiperidin-4-yl)isoxazole-3-carboxamide]",8.38,6.58
"C[C@H]1C[C@@H](NC(=O)c2cc(C3CC3)on2)CCN1S(=O)(=O)N1CCNCC1 [compound 558, 5-cyclopropyl-N-((2S,4S)-2-methyl-1-(piperazin-1-ylsulfonyl)piperidin-4-yl)isoxazole-3-carboxamide]",8.37,7.14
"CN1C2CCC1CN(S(=O)(=O)N1[C@@H]3CC[C@H]1C[C@@H](NC(=O)c1cc(C4CC4)on1)C3)C2 [compound 560, 5-cyclopropyl-N-((1R,3r,5S)-8-((8-methyl-3,8-diazabicyclo[3.2.1]octan-3-yl)sulfonyl)-8-azabicyclo[3.2.1]octan-3-yl)isoxazole-3-carboxamide]",8.32,7.29
"CNCCNCCCS(=O)(=O)N1[C@@H]2CC[C@H]1C[C@@H](NC(=O)c1cc(C3CC3)on1)C2 [compound 563, 5-cyclopropyl-N-((1R,3r,5S)-8-((3-((2-(methylamino)ethyl)amino)propyl)sulfonyl)-8-azabicyclo[3.2.1]octan-3-yl)isoxazole-3-carboxamide]",8.28,6.47
"NCCNCCCS(=O)(=O)N1[C@@H]2CC[C@H]1C[C@@H](NC(=O)c1cc(C3CC3)on1)C2 [compound 564, N-((1R,3r,5S)-8-((3-((2-aminoethyl)amino)propyl)sulfonyl)-8-azabicyclo[3.2.1]octan-3-yl)-5-cyclopropylisoxazole-3-carboxamide]",8.28,6.78
"C[C@H]1C[C@@H](NC(=O)c2cc(C3CC3)on2)CCN1S(=O)(=O)N1CC2CCC(C1)N2C [compound 565, 5-cyclopropyl-N-((2S,4S)-2-methyl-1-((8-methyl-3,8-diazabicyclo[3.2.1]octan-3-yl)sulfonyl)piperidin-4-yl)isoxazole-3-carboxamide]",8.22,7.31
"C[C@H]1C[C@@H](NC(=O)c2cc(C3CC3)on2)CCN1S(=O)(=O)CCCNCc1ccc(C(F)(F)F)cc1 [compound 566, 5-cyclopropyl-N-((2S,4S)-2-methyl-1-((3-((4-(trifluoromethyl)benzyl)amino)propyl)sulfonyl)piperidin-4-yl)isoxazole-3-carboxamide]",8.21,6.49
"C[C@H]1CN(S(=O)(=O)N2CCC(N)CC2)CC[C@H]1NC(=O)c1cc(C2CC2)on1 [compound 567, N-((3S,4R)-1-((4-aminopiperidin-1-yl)sulfonyl)-3-methylpiperidin-4-yl)-5-cyclopropylisoxazole-3-carboxamide]",8.21,6.95
"C[C@@H]1C[C@H](NC(=O)c2cc(C3CC3)on2)CCN1S(=O)(=O)CC1CCN(C)CC1 [compound 568, 5-cyclopropyl-N-((2R,4R)-2-methyl-1-(((1-methylpiperidin-4-yl)methyl)sulfonyl)piperidin-4-yl)isoxazole-3-carboxamide]",8.20,6.81
"O=C(N[C@H]1C[C@H]2CC[C@@H](C1)N2S(=O)(=O)C[C@@H]1CCCNC1)c1cc(C2CC2)on1 [compound 569, 5-cyclopropyl-N-((1R,3R,5S)-8-((((R)-piperidin-3-yl)methyl)sulfonyl)-8-azabicyclo[3.2.1]octan-3-yl)isoxazole-3-carboxamide]",8.18,7.40
"C[C@H]1C[C@@H](NC(=O)c2cc(C3CC3)on2)CCN1S(=O)(=O)N1CC2CC1CN2 (stereo partly drawn) [compound 570, N-((2S,4S)-1-((2,5-diazabicyclo[2.2.1]heptan-2-yl)sulfonyl)-2-methylpiperidin-4-yl)-5-cyclopropylisoxazole-3-carboxamide]",8.17,7.08
"O=C(N[C@H]1C[C@H]2CC[C@@H](C1)N2S(=O)(=O)N1CC2CC(C1)N2)c1cc(C2CC2)on1 [compound 571, N-((1R,3r,5S)-8-((3,6-diazabicyclo[3.1.1]heptan-3-yl)sulfonyl)-8-azabicyclo[3.2.1]octan-3-yl)-5-cyclopropylisoxazole-3-carboxamide]",8.12,7.00
"C[C@H]1CN(S(=O)(=O)N2CC[C@H](NC(=O)c3cc(C4CC4)on3)C[C@@H]2C)CCN1 [compound 572, 5-cyclopropyl-N-((2S,4S)-2-methyl-1-(((S)-3-methylpiperazin-1-yl)sulfonyl)piperidin-4-yl)isoxazole-3-carboxamide]",8.11,7.27
"C[C@@H]1C[C@H](NC(=O)c2cc(C3CC3)on2)CCN1S(=O)(=O)CC1CCN(Cc2ccccc2)CC1 [compound 573, N-((2R,4R)-1-(((1-benzylpiperidin-4-yl)methyl)sulfonyl)-2-methylpiperidin-4-yl)-5-cyclopropylisoxazole-3-carboxamide]",8.10,6.53
"C[C@H]1C[C@@H](NC(=O)c2cc(C3CC3)on2)CCN1S(=O)(=O)C1CCN(C)CC1 [compound 574, 5-cyclopropyl-N-((2S,4S)-2-methyl-1-((1-methylpiperidin-4-yl)sulfonyl)piperidin-4-yl)isoxazole-3-carboxamide]",8.10,6.98
"O=C(N[C@H]1C[C@H]2CC[C@@H](C1)N2S(=O)(=O)C[C@H]1CCCNC1)c1cc(C2CC2)on1 [compound 575, 5-cyclopropyl-N-((1R,3S,5S)-8-((((S)-piperidin-3-yl)methyl)sulfonyl)-8-azabicyclo[3.2.1]octan-3-yl)isoxazole-3-carboxamide]",8.10,7.17
"C[C@H]1C[C@@H](NC(=O)c2cc(C3CC3)on2)CCN1S(=O)(=O)CCCCN(C)C [compound 576, 5-cyclopropyl-N-((2S,4S)-1-((4-(dimethylamino)butyl)sulfonyl)-2-methylpiperidin-4-yl)isoxazole-3-carboxamide]",8.09,6.97
"C[C@H]1C[C@@H](NC(=O)c2cc(C3CC3)on2)CCN1S(=O)(=O)N1CC2CCC1CN2 (stereo partly drawn) [compound 577, N-((2S,4S)-1-((2,5-diazabicyclo[2.2.2]octan-2-yl)sulfonyl)-2-methylpiperidin-4-yl)-5-cyclopropylisoxazole-3-carboxamide]",8.04,6.87
"C[C@H]1C[C@@H](NC(=O)c2cc(C3CC3)on2)CCN1S(=O)(=O)CCCNCc1ccc2ccccc2c1 [compound 578, 5-cyclopropyl-N-((2S,4S)-2-methyl-1-((3-((naphthalen-2-ylmethyl)amino)propyl)sulfonyl)piperidin-4-yl)isoxazole-3-carboxamide]",8.03,6.54
"C[C@@H]1C[C@H](NC(=O)c2cc(C3CC3)on2)CCN1S(=O)(=O)CC1CCN(CCN2CCCCC2)CC1 [compound 579, 5-cyclopropyl-N-((2R,4R)-2-methyl-1-(((1-(2-(piperidin-1-yl)ethyl)piperidin-4-yl)methyl)sulfonyl)piperidin-4-yl)isoxazole-3-carboxamide]",8.02,6.23
"O=C(N[C@H]1C[C@H]2CC[C@@H](C1)N2S(=O)(=O)N1CC2(CNC2)C1)c1cc(C2CC2)on1 [compound 580, N-((1R,3r,5S)-8-((2,6-diazaspiro[3.3]heptan-2-yl)sulfonyl)-8-azabicyclo[3.2.1]octan-3-yl)-5-cyclopropylisoxazole-3-carboxamide]",8.01,7.05
"CC(C)NC1CCN(S(=O)(=O)N2CC[C@H](NC(=O)c3cc(C4CC4)on3)C[C@@H]2C)CC1 [compound 581, 5-cyclopropyl-N-((2S,4S)-1-((4-(isopropylamino)piperidin-1-yl)sulfonyl)-2-methylpiperidin-4-yl)isoxazole-3-carboxamide]",8.00,6.84
